From patent publication US4605662A, “1-substituted pyrrolizidine derivatives and antiarrhythmic use thereof” (Suntory Ltd., priority 1982, dated 1986) come the findings set out here.

The structures appear in SMILES notation.

The test system of data set [1] is ventricular flutter and fibrillation. The data set can be described thus: Protection against chloroform-induced ventricular arrhythmias in mice (Lawson method), subcutaneous. The settings on record: 30 min before chloroform inhalation, male ddy mice; for ED50 / ED40 / ED20: Mus musculus, sc; for ED50: read-out: ED50 (95% confidence limits), antiarrhythmic activity; for ED40: read-out: ED40, antiarrhythmic activity; for ED20: read-out: ED20, antiarrhythmic activity. The class given is in vivo, ddy strain). Here is the method: In accordance with the method described by J. W. Lawson (Journal of Pharmacology and Experimental Therapeutics, vol. 160, pp. 22, 1968), male mice of the ddy strain weighing 16 to 30 g were allowed to inhale chloroform to induce ventricular arrhythmias. At the time when they ceased to breathe, the electrocardiogram of each animal was recorded to observe the ventricular flutter and fibrillation. The abnormalities of the ventricles observed in these animals can be prevented by pretreatment with substances which have antiarrhythmic activity. The compounds of this invention were subcutaneously injected in 4-5 different doses to groups of 29 to 40 mice. Thirty minutes later, the mice were subjected to inhalation of chloroform to induce arrhythmias, and the protection by each dose against the ventricular flutter and fibrillation were expressed as percent. […]

A short description of data set [2]: 50% lethal dose (LD50) by Up and Down Method in mice, and therapeutic index. The class given is in vivo. The settings on record: mouse, in vivo; Up and Down Method; male ddy mice 18 to 22 g. The text has this:
(§1) The 50% lethal doses (median lethal doses, LD50) were computed by the "Up and Down Method" (Pharmacological Experiment, compiled by Takagi and Ozawa, pp. 204, Nanzando, 1972) using male mice of the ddy strain weighing 18 to 22 g, and the ratios of the LD50 to ED50 values were expressed as the therapuetic indices, as presented in Table 1.

The subject of data set [3] is male mice of the ddy strain. The data set is described as above. The data set is classed as in vivo. Conditions: LD50/ED50.
From the text: as §1

For orientation: ED50 means the dose at which the effect has come halfway, by size or by number of responders. The LD50 is the dose expected to kill half of the subjects tested. Read a low LD50 as a more toxic substance. Take `COc1ccc(OC)c(NC(=O)[C@@H]2CCN3CCC[C@@H]23)c1` (relative stereo) [XII]: the ED50 in data set [1] (Litchfield and Wilcoxon) is greater than 100 mg/kg. In addition, the ED40 in data set [1] came out at 100 mg/kg. The same compound displayed an LD50 in data set [2] greater than 500 mg/kg.
For the compound `Cc1ccccc1NC(=O)[C@@H]1CCN2CCC[C@@H]12` (relative stereo), in data set [1] (Litchfield and Wilcoxon), the ED50 is greater than 100 mg/kg. Also, the ED20 in data set [1] turned out to be 100 mg/kg. In addition, the median lethal dose (LD50) in data set [2] is greater than 500 mg/kg.
As for `Cc1cccc(NC(=O)[C@@H]2CCN3CCC[C@@H]23)c1C` (relative stereo) [VII], in data set [1] (Litchfield and Wilcoxon), the ED50 is greater than 100 mg/kg. Moreover, the ED20 in data set [1] amounted to 100 mg/kg. In addition, the median lethal dose (LD50) in data set [2] is greater than 500 mg/kg.
As for `O=C(Nc1ccccc1Br)[C@@H]1CCN2CCC[C@@H]12` (relative stereo) [VI], in data set [1] (Litchfield and Wilcoxon), the ED50 is greater than 100 mg/kg. For the same compound, the ED40 in data set [1] stood at 100 mg/kg. In data set [2], this compound returned an LD50 greater than 500 mg/kg.
With `CCc1cccc(CC)c1NC(=O)[C@@H]1CCN2CCC[C@@H]12` (relative stereo) [XI], the ED50 in data set [1] (Litchfield and Wilcoxon) stood at 38 mg/kg. Besides, the LD50 in data set [2] is 244 mg/kg. For the same compound, the “Therapeutic index (ratio of LD50 to ED50)” value in data set [3] is reported as 6.24.
As for `COc1ccccc1NC(=O)[C@@H]1CCN2CCC[C@@H]12` (relative stereo) [II], the 50% effective dose (ED50) in data set [1] (Litchfield and Wilcoxon) turned out to be 74 mg/kg. In data set [2], this compound returned an LD50 greater than 500 mg/kg.
Take `Cc1cc(C)cc(NC(=O)[C@@H]2CCN3CCC[C@@H]23)c1` (relative stereo) [X]: the ED50 in data set [1] (Litchfield and Wilcoxon) is 100 mg/kg. Moreover, the ED20 in data set [1] was greater than 100 mg/kg. Also, the 50% lethal dose (LD50) in data set [2] is greater than 500 mg/kg.
Take `Cc1cccc(C)c1NC(=O)[C@@H]1CCN2CCC[C@@H]12` (relative stereo) [IX]: in data set [1] (Litchfield and Wilcoxon), the ED50 came out at 29 mg/kg. The LD50 in data set [2] amounted to 447 mg/kg. In data set [3], the “Therapeutic index (ratio of LD50 to ED50)” value was found to be 15.4.
Turning to `Cc1cc(C)c(NC(=O)[C@@H]2CCN3CCC[C@@H]23)c(C)c1` (relative stereo) [XV], the ED50 in data set [1] (Litchfield and Wilcoxon) was greater than 100 mg/kg. Moreover, in data set [1], the ED20 came to 100 mg/kg. In data set [2], this compound showed an LD50 of 394 mg/kg.
The like results for `COc1ccc(NC(=O)[C@@H]2CCN3CCC[C@@H]23)cc1` (relative stereo) [IV] were, in that order, greater than 100 mg/kg, 100 mg/kg and greater than 500 mg/kg.
Regarding `O=C(Nc1c(Br)cccc1Br)[C@@H]1CCN2CCC[C@@H]12` (relative stereo) [XIV], in data set [1] (Litchfield and Wilcoxon), the median effective dose (ED50) stood at 43 mg/kg. In data set [2], this compound returned an LD50 of 468 mg/kg. Also, the “Therapeutic index (ratio of LD50 to ED50)” value in data set [3] is reported as 10.88.
In the case of `COc1cccc(NC(=O)[C@@H]2CCN3CCC[C@@H]23)c1` (relative stereo) [III], the ED50 in data set [1] (Litchfield and Wilcoxon) was greater than 100 mg/kg. Further, the ED40 in data set [1] amounted to 100 mg/kg. In data set [2], the LD50 is greater than 500 mg/kg.
In the case of `Cc1ccc(C)c(NC(=O)[C@@H]2CCN3CCC[C@@H]23)c1` (relative stereo) [VIII], the 50% effective dose (ED50) in data set [1] (Litchfield and Wilcoxon) was greater than 100 mg/kg. In data set [1], the ED20 worked out at 100 mg/kg. In data set [2], the median lethal dose (LD50) is greater than 500 mg/kg.
With `O=C(Nc1c(Cl)cccc1Cl)[C@@H]1CCN2CCC[C@@H]12` (relative stereo) [XIII], the 50% effective dose (ED50) in data set [1] (Litchfield and Wilcoxon) was 38 mg/kg. Also, the LD50 in data set [2] is 263 mg/kg. Further, the “Therapeutic index (ratio of LD50 to ED50)” value in data set [3] was 6.92.
For `O=C(Nc1ccccc1Cl)[C@@H]1CCN2CCC[C@@H]12` (relative stereo) [V], in data set [1] (Litchfield and Wilcoxon), the “ED50 (95% confidence limits), antiarrhythmic activity” value is reported as 100 mg/kg and the ED50 is greater than 100 mg/kg. For the same compound, in data set [2], the LD50 stood at 263 mg/kg.
